Inconclusive results and toxic doses are left out.
System: L1210 leukemia ip in BDF1 mice, survival T/C
Assay: NCI In Vivo Anticancer Drug Screen. Data for tumor model L1210 Leukemia (intraperitoneal) in B6D2F1 (BDF1) mice
Conditions: endpoint: mean survival time, higher = longer survival
In short: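 Tumor cells were implanted, animals were treated, and survival was followed. The result divides the treated measurement by the vehicle-control measurement.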

[1] = dose: 25.0 mg/kg/injection, schedule: Q01DX009 (ip), vehicle: saline
[2] = dose: 50.0 mg/kg/injection, schedule: Q01DX009 (ip), vehicle: saline
[3] = dose: 100.0 mg/kg/injection, schedule: Q04DX002 (ip), vehicle: saline with Tween-80
[4] = dose: 400.0 mg/kg/injection, schedule: Q04DX002 (ip), vehicle: saline with Tween-80
[5] = dose: 100.0 mg/kg/injection, schedule: Q04DX003 (ip), vehicle: saline with Tween-80
[6] = dose: 200.0 mg/kg/injection, schedule: Q04DX003 (ip), vehicle: saline with Tween-80
[7] = dose: 400.0 mg/kg/injection, schedule: Q04DX003 (ip), vehicle: saline with Tween-80
[8] = dose: 100.0 mg/kg/injection, schedule: Q01DX009 (ip), vehicle: saline with Tween-80
[9] = dose: 100.0 mg/kg/injection, schedule: Q01DX001 (ip), vehicle: saline
[10] = dose: 200.0 mg/kg/injection, schedule: Q01DX001 (ip), vehicle: saline
[11] = dose: 400.0 mg/kg/injection, schedule: Q01DX001 (ip), vehicle: saline
[12] = dose: 100.0 mg/kg/injection, schedule: Q01DX001 (ip), vehicle: carboxymethylcellulose (CMC)
[13] = dose: 200.0 mg/kg/injection, schedule: Q01DX001 (ip), vehicle: carboxymethylcellulose (CMC)
[14] = dose: 400.0 mg/kg/injection, schedule: Q01DX001 (ip), vehicle: carboxymethylcellulose (CMC)
[15] = dose: 100.0 mg/kg/injection, schedule: Q01DX009 (ip), vehicle: Klucel (hydroxypropylcellulose) (HPC)
[16] = dose: 200.0 mg/kg/injection, schedule: Q01DX009 (ip), vehicle: Klucel (hydroxypropylcellulose) (HPC)
[17] = dose: 200.0 mg/kg/injection, schedule: Q01DX009 (ip), vehicle: saline with Tween-80

## C[P+]1(C)CC2OC2C1 (centres undefined)
dose: 12.5 mg/kg/injection, schedule: Q01DX009 (ip), vehicle: saline
  T/C: 91 % of control
[1]
  T/C: 102 % of control
[2]
  T/C: 94 % of control
dose: 100.0 mg/kg/injection, schedule: Q01DX009 (ip), vehicle: saline
  T/C: 91 % of control

## Nc1nc(N)nc(Cl)n1
[3]
  T/C: 98 % of control
[4]
  T/C: 95 % of control

## Cc1ccc(S(=O)(=O)OCC2OCC(O)C(O)C2O)cc1 (centres undefined)
[5]
  T/C: 86 % of control
[6]
  T/C: 86 % of control
[7]
  T/C: 86 % of control

## CCc1c2cc(OC)c(OC)cc2cc2c3cc(OC)c(OC)cc3cc[n+]12 (tested in a mixture with another compound)
[1]
  T/C: 116 % of control
[2]
  T/C: 123 % of control
dose: 66.0 mg/kg/injection, schedule: Q01DX009 (ip), vehicle: saline with Tween-80
  T/C: 150 % of control
dose: 88.0 mg/kg/injection, schedule: Q04DX003 (ip), vehicle: saline
  T/C: 121 % of control
[8]
  T/C: 160 % of control
dose: 150.0 mg/kg/injection, schedule: Q01DX009 (ip), vehicle: saline with Tween-80
  T/C: 156 % of control
dose: 200.0 mg/kg/injection, schedule: Q01DX009 (ip), vehicle: saline
  T/C: 89 % of control
dose: 300.0 mg/kg/injection, schedule: Q04DX003 (ip), vehicle: saline
  T/C: 107 % of control

## OCCOc1ccc(OCCO)cc1
[5]
  T/C: 94 % of control
[6]
  T/C: 97 % of control
[7]
  T/C: 99 % of control

## COC1OC(CO)C(N(C)C(C)=O)C1O (centres undefined)
[9]
  T/C: 94 % of control
[10]
  T/C: 103 % of control
[11]
  T/C: 97 % of control

## CCOC(CNC(=S)Nc1ccccc1)OCC
[12]
  T/C: 89 % of control
[13]
  T/C: 95 % of control
[14]
  T/C: 95 % of control

## CCCCCOC(=O)c1ccc(C)s1
[12]
  T/C: 90 % of control
[13]
  T/C: 101 % of control
[14]
  T/C: 98 % of control

## Nc1snc2ncccc12
dose: 50.0 mg/kg/injection, schedule: Q01DX009 (ip), vehicle: Klucel (hydroxypropylcellulose) (HPC)
  T/C: 97 % of control
[15]
  T/C: 92 % of control
dose: 100.0 mg/kg/injection, schedule: Q04DX003 (ip), vehicle: Klucel (hydroxypropylcellulose) (HPC)
  T/C: 89 % of control
[16]
  T/C: 103 % of control
dose: 200.0 mg/kg/injection, schedule: Q04DX003 (ip), vehicle: Klucel (hydroxypropylcellulose) (HPC)
  T/C: 87 % of control

## COc1cccc(CC(C)(C)CCO)c1
dose: 50.0 mg/kg/injection, schedule: Q01DX009 (ip), vehicle: saline with Tween-80
  T/C: 102 % of control
[8]
  T/C: 100 % of control
[17]
  T/C: 96 % of control

## [Cl][Pt][Cl].[NH-]CCN1CC1
dose: 5.0 mg/kg/injection, schedule: Q01DX009 (ip), vehicle: Klucel (hydroxypropylcellulose) (HPC)
  T/C: 114 % of control
dose: 10.0 mg/kg/injection, schedule: Q01DX009 (ip), vehicle: Klucel (hydroxypropylcellulose) (HPC)
  T/C: 110 % of control
dose: 20.0 mg/kg/injection, schedule: Q01DX009 (ip), vehicle: Klucel (hydroxypropylcellulose) (HPC)
  T/C: 98 % of control

## CCN(CC)C(=O)c1ccc(COc2cc(Cl)cc(Cl)c2)cc1
[15]
  T/C: 94 % of control
[16]
  T/C: 97 % of control
dose: 400.0 mg/kg/injection, schedule: Q01DX009 (ip), vehicle: Klucel (hydroxypropylcellulose) (HPC)
  T/C: 96 % of control

## O=C(Nc1ccccc1Br)c1ccc(Cl)cc1Cl
dose: 75.0 mg/kg/injection, schedule: Q01DX009 (ip), vehicle: Klucel (hydroxypropylcellulose) (HPC)
  T/C: 96 % of control
dose: 100.0 mg/kg/injection, schedule: Q04DX002 (ip), vehicle: Klucel (hydroxypropylcellulose) (HPC)
  T/C: 93 % of control
dose: 150.0 mg/kg/injection, schedule: Q01DX009 (ip), vehicle: Klucel (hydroxypropylcellulose) (HPC)
  T/C: 96 % of control
dose: 200.0 mg/kg/injection, schedule: Q04DX002 (ip), vehicle: Klucel (hydroxypropylcellulose) (HPC)
  T/C: 107 % of control
dose: 300.0 mg/kg/injection, schedule: Q01DX009 (ip), vehicle: Klucel (hydroxypropylcellulose) (HPC)
  T/C: 100 % of control
dose: 400.0 mg/kg/injection, schedule: Q04DX002 (ip), vehicle: Klucel (hydroxypropylcellulose) (HPC)
  T/C: 97 % of control

## O=C1c2cccnc2C(=O)c2c(O)ccc(O)c21
dose: 50.0 mg/kg/injection, schedule: Q01DX001 (ip), vehicle: carboxymethylcellulose (CMC)
  T/C: 100 % of control
[12]
  T/C: 108 % of control
[13]
  T/C: 100 % of control
[14]
  T/C: 108 % of control

## CN(C(=O)COc1ccccc1)c1ccc([N+](=O)[O-])cc1
[8]
  T/C: 95 % of control
[17]
  T/C: 93 % of control
dose: 400.0 mg/kg/injection, schedule: Q01DX009 (ip), vehicle: saline with Tween-80
  T/C: 95 % of control

## Cc1ccn(C)c(=O)c1
dose: 100.0 mg/kg/injection, schedule: Q04DX003 (ip), vehicle: saline
  T/C: 105 % of control
dose: 200.0 mg/kg/injection, schedule: Q04DX003 (ip), vehicle: saline
  T/C: 103 % of control
dose: 400.0 mg/kg/injection, schedule: Q04DX003 (ip), vehicle: saline
  T/C: 102 % of control

## O=Cc1cccc(Oc2cccc(C=O)c2)c1
dose: 100.0 mg/kg/injection, schedule: Q01DX001 (ip), vehicle: Klucel (hydroxypropylcellulose) (HPC)
  T/C: 97 % of control
dose: 200.0 mg/kg/injection, schedule: Q01DX001 (ip), vehicle: Klucel (hydroxypropylcellulose) (HPC)
  T/C: 95 % of control
dose: 400.0 mg/kg/injection, schedule: Q01DX001 (ip), vehicle: Klucel (hydroxypropylcellulose) (HPC)
  T/C: 92 % of control

## O=C(NO)Oc1cccc2ccccc12
dose: 25.0 mg/kg/injection, schedule: Q04DX002 (ip), vehicle: saline with Tween-80
  T/C: 105 % of control
dose: 50.0 mg/kg/injection, schedule: Q04DX002 (ip), vehicle: saline with Tween-80
  T/C: 119 % of control
[3]
  T/C: 89 % of control

## COc1ccc(CCN2C(=O)c3cccc4c(Sc5ccccc5[N+](=O)[O-])ccc(c34)C2=O)cc1OC
[3]
  T/C: 90 % of control
dose: 200.0 mg/kg/injection, schedule: Q04DX002 (ip), vehicle: saline with Tween-80
  T/C: 111 % of control
[4]
  T/C: 93 % of control

## CNCCNCC(Cc1ccccc1)c1ccccc1 (centres undefined)
dose: 25.0 mg/kg/injection, schedule: Q04DX002 (ip), vehicle: saline
  T/C: 107 % of control
dose: 50.0 mg/kg/injection, schedule: Q04DX002 (ip), vehicle: saline
  T/C: 97 % of control
dose: 100.0 mg/kg/injection, schedule: Q04DX002 (ip), vehicle: saline
  T/C: 97 % of control

## Cc1cc(/C=N/NC(=O)CCCC(=O)N/N=C/c2cc(C)n(-c3ccccc3)c2C)c(C)n1-c1ccccc1
dose: 50.0 mg/kg/injection, schedule: Q01DX001 (ip), vehicle: saline
  T/C: 98 % of control
[9]
  T/C: 93 % of control
[10]
  T/C: 95 % of control
[11]
  T/C: 89 % of control

## Clc1nc(Cl)c(CBr)c(Cl)n1
dose: 1.0 mg/kg/injection, schedule: Q01DX Z (ip), vehicle: carboxymethylcellulose (CMC)
  T/C: 96 % of control
dose: 2.0 mg/kg/injection, schedule: Q01DX Z (ip), vehicle: carboxymethylcellulose (CMC)
  T/C: 96 % of control
dose: 4.0 mg/kg/injection, schedule: Q01DX Z (ip), vehicle: carboxymethylcellulose (CMC)
  T/C: 96 % of control
dose: 8.0 mg/kg/injection, schedule: Q01DX Z (ip), vehicle: carboxymethylcellulose (CMC)
  T/C: 94 % of control
dose: 10.0 mg/kg/injection, schedule: Q01DX001 (ip), vehicle: carboxymethylcellulose (CMC)
  T/C: 96 % of control
dose: 16.0 mg/kg/injection, schedule: Q01DX009 (ip), vehicle: carboxymethylcellulose (CMC)
  T/C: 103 % of control
dose: 20.0 mg/kg/injection, schedule: Q01DX001 (ip), vehicle: carboxymethylcellulose (CMC)
  T/C: 93 % of control
dose: 40.0 mg/kg/injection, schedule: Q01DX001 (ip), vehicle: carboxymethylcellulose (CMC)
  T/C: 93 % of control

## Cc1nc(C(=O)NN)co1
dose: 5.0 mg/kg/injection, schedule: Q01DX001 (ip), vehicle: saline
  T/C: 106 % of control
dose: 10.0 mg/kg/injection, schedule: Q01DX001 (ip), vehicle: saline
  T/C: 110 % of control
dose: 20.0 mg/kg/injection, schedule: Q01DX001 (ip), vehicle: saline
  T/C: 101 % of control
dose: 40.0 mg/kg/injection, schedule: Q01DX001 (ip), vehicle: saline
  T/C: 101 % of control
dose: 80.0 mg/kg/injection, schedule: Q01DX001 (ip), vehicle: saline
  T/C: 104 % of control
[9]
  T/C: 98 % of control

From PubChem BioAssay AID248 (DTP/NCI, 2004)
